Measurements published in paper PMC12668310, “High‐Throughput Synthesis and Screening of a Cyanimide Library Identifies Selective Inhibitors of ISG15‐Specific Protease mUSP18” (Angewandte Chemie (International Ed. in English), 2025).
“And” between values parts separate entries of the source, which are not always exact repeats. Identical values can stand only once. Like-named read-outs stand apart in the source and are kept apart here.

Columns and labels:
[1] = molecular target: T1, mUSP18 (Mus musculus, UniProt Q9WTV6); experiment: High-throughput screening, ISG15ct-RhoMP, single dose 1.25 µM; assay type: biochemical, murine
T1 construct: (46-368); His-tag (N); made in house
T1 sequence (Q9WTV6 46-368): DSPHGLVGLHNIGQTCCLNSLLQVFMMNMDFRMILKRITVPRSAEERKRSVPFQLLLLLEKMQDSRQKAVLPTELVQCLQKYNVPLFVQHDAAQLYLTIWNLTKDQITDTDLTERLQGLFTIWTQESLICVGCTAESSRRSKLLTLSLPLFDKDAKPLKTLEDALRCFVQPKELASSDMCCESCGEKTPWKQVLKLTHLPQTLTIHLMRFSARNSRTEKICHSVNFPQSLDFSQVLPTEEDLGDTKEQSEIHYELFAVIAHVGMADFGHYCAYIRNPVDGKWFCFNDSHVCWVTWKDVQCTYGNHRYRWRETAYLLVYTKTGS

[2] = molecular target: T2, SENP1 (Homo sapiens, UniProt Q9P0U3); experiment: High-throughput screening, single dose 1.25 µM; assay type: biochemical; conditions: for inhibition at 1.25 µM: individual amine building block (plate NCN-5), read-out: BB %inhibition SENP1; for %inhibition SENP1: crude in-plate synthesized compound, 1.25 µM assuming full conversion
T2 sequence (Q9P0U3 419-644): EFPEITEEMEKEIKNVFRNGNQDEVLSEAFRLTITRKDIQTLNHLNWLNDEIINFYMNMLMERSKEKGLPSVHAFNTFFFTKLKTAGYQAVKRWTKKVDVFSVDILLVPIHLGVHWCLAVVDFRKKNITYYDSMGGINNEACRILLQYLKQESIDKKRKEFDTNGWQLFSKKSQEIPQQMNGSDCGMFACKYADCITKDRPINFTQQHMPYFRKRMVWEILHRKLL
Protocol: (§1) Since the in‐plate synthesis was conducted in 1536‐well Echo plates, the compounds could readily be transferred from these plates into 1536‐well assay plates using acoustic liquid dispensing (Figure 2a) and subjected to HTS. We screened the whole 7536 compound library against a panel of twelve enzymes, including three DUBs from the UCH family, two DUBs from the OTU family, five DUBs from the USP family, plus ISG15 protease USP18, and SUMO protease SENP1. Each compound was tested at a single dose of 1.25 µM, assuming full conversion (10 mM in DMSO of the formed products) during the in‐plate synthesis, using the fluorogenic assay described above. […] The compounds are sorted by the amine building blocks (BB1‐16), and within each BB, sorted by carboxylic acid (CA1‐471), thereby providing a comprehensive and systematic overview of the overall inhibition by each BB and CA combination. Some interesting patterns can be obtained from this map. […] Indeed, BB10 is the privileged scaffold for UCHL1 as it originates from UCHL1 inhibitor 5 (Figure 1). […] On the other hand, OTUD1 and USP32 show a much higher hit rate, and this is even more pronounced for USP30 and ISG15 protease mUSP18, each showing many active compounds distributed over several BB's.
(§2) Purified recombinant enzymes used in this study
(§3) High-throughput screening
(§4) The screens were performed at room temperature in “flat bottom, non-treated, black […]
(§5) µM. The compounds (10 nL each) were transferred from the 1 mM daughter plates to the […]
(§6) Four wells containing DMSO
(§7) (10 nL) and four wells containing NEM (10 mM final concentration) were used in each plate […]
(§8) solution (1.33x final concentration) was added to each well, followed by incubation for 30 min.
(§9) Next, 2 µL of a substrate solution (4x final concentration) was added to each well (Ub-RhoMP[2]
(§10) After 1h or 2h incubation the
(§11) The percentage inhibition was calculated for each well using the […]
(§12) Where FIx is the fluorescence intensity of each well, FIpos is the average fluorescence intensity of the positive (NEM) control wells, and FIneg is the average fluorescence intensity of the negative (DMSO) control wells.

[3] = molecular target: T3, USP30 (Homo sapiens, UniProt Q70CQ3); experiment: High-throughput screening, Ub-RhoMP, single dose 1.25 µM; assay type: biochemical; set-up: USP30 CD (57-517); purchased Ubiquigent 64-0057-050; conditions: for BB %inhibition USP30: individual amine building block (plate NCN-5); for %inhibition USP30: crude in-plate synthesized compound, 1.25 µM assuming full conversion
T3 sequence (Q70CQ3 57-517): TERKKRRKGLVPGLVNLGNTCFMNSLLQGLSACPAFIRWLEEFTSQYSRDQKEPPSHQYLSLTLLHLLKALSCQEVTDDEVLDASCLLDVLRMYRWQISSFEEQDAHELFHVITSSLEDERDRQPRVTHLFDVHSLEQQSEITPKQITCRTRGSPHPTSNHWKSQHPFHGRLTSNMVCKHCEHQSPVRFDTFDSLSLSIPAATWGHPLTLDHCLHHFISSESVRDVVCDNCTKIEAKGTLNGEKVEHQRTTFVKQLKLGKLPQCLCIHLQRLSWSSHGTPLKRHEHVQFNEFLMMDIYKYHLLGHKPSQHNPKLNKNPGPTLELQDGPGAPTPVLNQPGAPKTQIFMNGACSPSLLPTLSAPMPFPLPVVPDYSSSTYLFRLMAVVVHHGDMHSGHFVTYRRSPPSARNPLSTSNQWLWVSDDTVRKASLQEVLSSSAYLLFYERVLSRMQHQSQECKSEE
Protocol: as §1, §2, §3, §4, §5, §6, §7, §8, §9, §10, §11, §12

[4] = molecular target: T4, UCHL1 (Homo sapiens, UniProt P09936); experiment: as above; assay type: biochemical; conditions: for inhibition at 1.25 µM: individual amine building block (plate NCN-5), read-out: BB %inhibition UCHL1; for %inhibition UCHL1: crude in-plate synthesized compound, 1.25 µM assuming full conversion
T4 construct: (1-223); made in house
T4 sequence (P09936 1-223): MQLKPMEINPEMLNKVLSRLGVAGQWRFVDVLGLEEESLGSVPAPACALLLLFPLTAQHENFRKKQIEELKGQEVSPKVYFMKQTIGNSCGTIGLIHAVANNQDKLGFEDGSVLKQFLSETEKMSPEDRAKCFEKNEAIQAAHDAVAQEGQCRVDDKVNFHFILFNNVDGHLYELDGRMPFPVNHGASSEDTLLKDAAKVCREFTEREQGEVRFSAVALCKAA
Protocol: as §1, §2, §3, §4, §5, §6, §7, §8, §9, §10, §11, §12

[5] = molecular target: T5, UCHL3 (Homo sapiens, UniProt P15374); experiment: as above; assay type: biochemical; conditions: for inhibition at 1.25 µM: individual amine building block (plate NCN-5), read-out: BB %inhibition UCHL3; for %inhibition UCHL3: crude in-plate synthesized compound, 1.25 µM assuming full conversion
T5 construct: (1-230); made in house
T5 sequence (P15374 1-230): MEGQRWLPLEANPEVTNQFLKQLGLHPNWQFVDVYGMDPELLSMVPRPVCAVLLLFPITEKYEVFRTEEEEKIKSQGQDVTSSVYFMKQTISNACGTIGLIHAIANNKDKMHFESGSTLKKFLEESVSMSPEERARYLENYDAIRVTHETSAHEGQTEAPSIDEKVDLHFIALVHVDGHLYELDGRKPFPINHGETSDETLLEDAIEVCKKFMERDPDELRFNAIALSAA
Protocol: as §1, §2, §3, §4, §5, §6, §7, §8, §9, §10, §11, §12

[6] = molecular target: USP16 (Homo sapiens, UniProt Q9Y5T5); experiment: as above; assay type: biochemical; set-up: (22-823); His-tag (N); made in house; conditions: for BB %inhibition USP16: individual amine building block (plate NCN-5); for %inhibition USP16: crude in-plate synthesized compound, 1.25 µM assuming full conversion
Protocol: as §1, §2, §3, §4, §5, §6, §7, §8, §9, §10, §11, §12

[7] = molecular target: T6, OTUD1 (Homo sapiens, UniProt Q5VV17); experiment: as above; assay type: biochemical; conditions: crude in-plate synthesized compound, 1.25 µM assuming full conversion
T6 sequence (Q5VV17 287-481): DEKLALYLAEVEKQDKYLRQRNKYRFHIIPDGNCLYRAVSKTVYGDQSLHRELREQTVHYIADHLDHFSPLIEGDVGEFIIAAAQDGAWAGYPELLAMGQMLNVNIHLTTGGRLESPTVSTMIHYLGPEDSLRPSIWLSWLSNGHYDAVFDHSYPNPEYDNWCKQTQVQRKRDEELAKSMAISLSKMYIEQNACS
Protocol: as §1, §2, §3, §4, §5, §6, §7, §8, §9, §10, §11, §12

[8] = individual amine building block (plate NCN-5), read-out: BB %inhibition mUSP18
[9] = crude in-plate synthesized compound, 1.25 µM assuming full conversion, read-out: %inhibition mUSP18

Sequence of USP16 (Q9Y5T5 22-823): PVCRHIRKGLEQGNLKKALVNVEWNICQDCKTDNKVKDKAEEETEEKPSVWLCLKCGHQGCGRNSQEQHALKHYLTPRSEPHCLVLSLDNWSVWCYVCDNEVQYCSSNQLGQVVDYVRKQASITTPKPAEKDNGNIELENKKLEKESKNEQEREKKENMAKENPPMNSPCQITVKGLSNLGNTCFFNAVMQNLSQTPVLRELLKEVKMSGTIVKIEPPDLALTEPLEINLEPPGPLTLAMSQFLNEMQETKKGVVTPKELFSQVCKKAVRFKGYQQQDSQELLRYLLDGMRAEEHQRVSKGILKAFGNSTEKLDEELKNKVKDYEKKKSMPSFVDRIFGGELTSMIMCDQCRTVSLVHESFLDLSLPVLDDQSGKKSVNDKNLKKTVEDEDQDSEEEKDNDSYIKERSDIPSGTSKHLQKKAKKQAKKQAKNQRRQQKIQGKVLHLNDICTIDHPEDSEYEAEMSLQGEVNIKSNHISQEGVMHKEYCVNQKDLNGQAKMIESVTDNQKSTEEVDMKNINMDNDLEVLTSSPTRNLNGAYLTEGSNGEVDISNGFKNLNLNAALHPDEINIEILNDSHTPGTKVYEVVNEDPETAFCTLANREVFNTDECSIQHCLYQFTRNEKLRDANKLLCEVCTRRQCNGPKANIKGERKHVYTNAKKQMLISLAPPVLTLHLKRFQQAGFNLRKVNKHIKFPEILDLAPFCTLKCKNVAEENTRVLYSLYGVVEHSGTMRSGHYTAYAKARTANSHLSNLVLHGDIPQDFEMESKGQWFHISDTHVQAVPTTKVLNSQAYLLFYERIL

Structure (SMILES)	inhibition at 1.25 µM [1, 8]	inhibition at 1.25 µM [2]	BB %inhibition USP30 [3]	inhibition at 1.25 µM [4]	inhibition at 1.25 µM [5]	BB %inhibition USP16 [6]	inhibition at 1.25 µM [1, 9]	%inhibition SENP1 [2]	%inhibition USP30 [3]	%inhibition OTUD1 [7]	%inhibition UCHL1 [4]	%inhibition UCHL3 [5]	%inhibition USP16 [6]
N#CN1C[C@H]2C[C@H](N)C[C@H]2C1 [BB7]	-3.9%	-11.7%	-2.3%	0.7%	-7.4%	-1.2%							
N#CN1C[C@H]2C[C@@H](N)C[C@H]2C1 [BB6]	-0.535%	-9%	-0.126%	0.4%	-4.7%	0.3%							
N#CN1CCC2(CCNC2)C1 (centres unmarked) [BB14]	-1%	8.7%	3.9%	1%	8.6%	5.9%							
N#CN1CC[C@@H](NC(=O)c2ncoc2-c2cccs2)C1 [BB01CA94]							24.1%	8.5%	73.0%	-11.1%	8.0%	16.0%	11.4%
N#CN1CC[C@@H](NC(=O)Cc2csc(-c3cnccn3)n2)C1 [BB01CA92]							24.6%	12.8%	65.3%	-13.5%	8.8%	17.1%	15.0%
N#CN1C[C@@H]2C[C@H]1CN2 [BB12]	-0.7%	-9.2%	-3.6%	-1.2%	-4.6%	-5.0%							

The next lines start with the values.

inhibition at 1.25 µM [1, 8]	inhibition at 1.25 µM [2]	BB %inhibition USP30 [3]	inhibition at 1.25 µM [4]	inhibition at 1.25 µM [5]	BB %inhibition USP16 [6]	inhibition at 1.25 µM [1, 9]	%inhibition SENP1 [2]	%inhibition USP30 [3]	%inhibition OTUD1 [7]	%inhibition UCHL1 [4]	%inhibition UCHL3 [5]	%inhibition USP16 [6]	Structure (SMILES)
-0.9%	10.1%	7.5%	0.8%	8%	4.4%								N#CN1C[C@H](N)[C@@H](O)C1 [BB13]
2%	-5%	~35% and 31.5%	-0.3%	-2.3%	-1.3%								N#CN1CC[C@@H](NC(=O)c2ccc(CN)cc2)C1 [BB9]
-4.3%	4%	0.9%	1.3%	2.3%	-0.846%								N#CN1CCC(n2cc(N)cn2)CC1 [BB16]
-5.8%	0.022%	-2.2%	1%	1.4%	-1.1%								N#CN1C[C@@H](F)[C@@H](N)C1 [BB15]
